Experiments:
Assay in all cases: relative viability (nuclei count vs DMSO), 5 days (fraction); higher = more cells survive
Cediranib + Crizotinib = compound: COc1cc2c(Oc3ccc4[nH]c(C)cc4c3F)ncnc2cc1OCCCN1CCCC1 [Cediranib] + C[C@@H](Oc1cc(-c2cnn(C3CCNCC3)c2)cnc1N)c1c(Cl)ccc(F)c1Cl [Crizotinib] (partner 1 µM)
Summary of the method: (§1)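 Lung cancer cell lines were pin-tool dosed in 1536-well plates on the day after seeding, with either a lone drug or a fixed anchor-drug dose plus five library-drug doses (not always all listed) in √10 steps. Nuclei were counted on 4× images after 5 days. Relative viability is the ratio of treated-well to vehicle-well nuclei counts, with each value a median of duplicate plates.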

Decitabine + Phenformin = compound: Nc1ncn([C@H]2C[C@H](O)[C@@H](CO)O2)c(=O)n1 [Decitabine] + N=C(N)NC(=N)NCCc1ccccc1 [Phenformin] (partner 250 µM)
Summary of the method: as §1

Halofuginone + Foretinib = compound: O=C(C[C@H]1NCCC[C@@H]1O)Cn1cnc2cc(Br)c(Cl)cc2c1=O (racemic) [Halofuginone] + COc1cc2c(Oc3ccc(NC(=O)C4(C(=O)Nc5ccc(F)cc5)CC4)cc3F)ccnc2cc1OCCCN1CCOCC1 [Foretinib] (partner 0.25 µM)
Summary of the method: as §1

Halofuginone + Alpelisib = compound: O=C(C[C@H]1NCCC[C@@H]1O)Cn1cnc2cc(Br)c(Cl)cc2c1=O (racemic) [Halofuginone] + Cc1nc(NC(=O)N2CCC[C@H]2C(N)=O)sc1-c1ccnc(C(C)(C)C(F)(F)F)c1 [Alpelisib] (partner 2 µM)
Summary of the method: as §1

| Cell Line | relative viability (Cediranib + Crizotinib; first compound 0.04 µM) | relative viability (Cediranib + Crizotinib; first compound 0.4 µM) | relative viability (Cediranib + Crizotinib; first compound 1.265 µM) | relative viability (Cediranib + Crizotinib; first compound 4 µM) | relative viability (Decitabine + Phenformin; first compound 0.04 µM) | relative viability (Decitabine + Phenformin; first compound 0.1265 µM) | relative viability (Decitabine + Phenformin; first compound 0.4 µM) | relative viability (Decitabine + Phenformin; first compound 1.265 µM) | relative viability (Decitabine + Phenformin; first compound 4 µM) | relative viability (Halofuginone + Foretinib; first compound 0.001 µM) | relative viability (Halofuginone + Foretinib; first compound 0.003162 µM) | relative viability (Halofuginone + Foretinib; first compound 0.01 µM) | relative viability (Halofuginone + Foretinib; first compound 0.03162 µM) | relative viability (Halofuginone + Foretinib; first compound 0.1 µM) | relative viability (Halofuginone + Alpelisib; first compound 0.001 µM) | relative viability (Halofuginone + Alpelisib; first compound 0.003162 µM) | relative viability (Halofuginone + Alpelisib; first compound 0.01 µM) | relative viability (Halofuginone + Alpelisib; first compound 0.03162 µM) | relative viability (Halofuginone + Alpelisib; first compound 0.1 µM) | relative viability (Cediranib + Crizotinib; first compound 0.1265 µM) |
| --- | --- | --- | --- | --- | --- | --- | --- | --- | --- | --- | --- | --- | --- | --- | --- | --- | --- | --- | --- | --- |
| LU99A | 0.639 | 0.59 | 0.547 | 0.649 | 0.825 | 1 | 0.757 | 0.648 | 0.627 | 0.8 | 0.725 | 0.817 | 0.814 | 0.768 | 0.553 | 0.488 | 0.538 | 0.475 | 0.326 | – |
| LXF-289 | 0.831 | 0.782 | 0.838 | 0.804 | 0.431 | 0.371 | 0.263 | 0.26 | 0.228 | 1.01 | 1.04 | 0.927 | 1.01 | 0.922 | 1.04 | 1.08 | 1.01 | 0.994 | 0.852 | 0.727 |
| NCI-H23 | 0.472 | 0.557 | 0.518 | 0.597 | 0.579 | 0.548 | 0.297 | 0.242 | 0.244 | 1 | 0.919 | 0.852 | 0.991 | 0.478 | 0.548 | 0.725 | 0.643 | 0.814 | 0.224 | – |
| NCI-H322M | 0.894 | 0.887 | 0.904 | 0.945 | 0.647 | 0.745 | 0.6 | 0.478 | 0.549 | 0.896 | 0.948 | 0.913 | 0.833 | 0.374 | 0.516 | 0.879 | 0.777 | 0.802 | 0.768 | 1.05 |
| NCI-H358 | 0.546 | 0.637 | 0.567 | 0.428 | 0.246 | 0.258 | 0.168 | 0.148 | 0.136 | 0.754 | 0.393 | 0.448 | 0.212 | 0.0804 | 0.898 | 0.818 | 0.711 | 0.305 | 0.164 | 0.641 |
| NCI-H441 | 0.78 | 1.02 | 0.504 | 0.735 | 0.494 | 0.428 | 0.306 | 0.289 | 0.231 | 1.08 | 1.03 | 0.823 | 0.643 | 0.362 | 0.602 | 0.605 | 0.623 | 0.664 | 0.262 | 0.76 |
| NCI-H460 | 0.867 | 0.815 | 0.889 | 0.935 | 0.473 | 0.473 | 0.472 | 0.223 | 0.157 | 1.01 | 1.08 | 0.899 | 0.942 | 0.113 | 0.62 | 0.495 | 0.464 | 0.214 | 0.0177 | 0.906 |
| NCI-H520 | 0.93 | 0.665 | 0.801 | 0.598 | 0.42 | 0.347 | 0.37 | 0.328 | 0.288 | 0.808 | 0.798 | 0.767 | 0.58 | 0.424 | 0.792 | 0.767 | 0.911 | 0.761 | 0.295 | – |
| NCI-H596 | 0.934 | 0.988 | 0.954 | 1.09 | 0.815 | 0.666 | – | 0.582 | 0.53 | 0.885 | 0.804 | 0.78 | 0.69 | 0.314 | 0.478 | 0.467 | 0.453 | 0.544 | 0.465 | 1.09 |
| NCI-H647 | 1.24 | 0.86 | 1.1 | 1.18 | 0.372 | 0.399 | 0.25 | 0.101 | 0.172 | 1.18 | 1.23 | 1.16 | 0.979 | 0.528 | 1.24 | 1.17 | 1.1 | 0.781 | 0.102 | 1.03 |
| NCI-H650 | 0.7 | 0.612 | 0.835 | 0.639 | 0.432 | 0.408 | 0.321 | 0.346 | 0.291 | 1.07 | 0.966 | 0.965 | 1.06 | 0.885 | 1.23 | 1.35 | 1.16 | 1.08 | 0.675 | 0.757 |
| NCI-H661 | 0.964 | 0.935 | 1.02 | 1.04 | 0.289 | 0.282 | 0.267 | 0.281 | 0.277 | 1.05 | 1.01 | 1 | 0.815 | 0.6 | 0.687 | 0.65 | 0.53 | 0.817 | 0.68 | 0.922 |
| NCI-H727 | 0.927 | 0.876 | 0.671 | 0.736 | 0.549 | 0.503 | 0.367 | 0.423 | 0.362 | 1.11 | 0.884 | 0.732 | 0.738 | 0.527 | 0.623 | 0.437 | 0.478 | 0.456 | 0.221 | 0.758 |
| NCI-H838 | 0.798 | 0.817 | 0.811 | 0.748 | 0.398 | 0.409 | 0.247 | 0.266 | 0.242 | 1.18 | 1.02 | 1 | 0.681 | 0.395 | 1.05 | 0.961 | 1.05 | 0.566 | 0.111 | 0.898 |
| NCI-H1355 | 1.1 | 1.08 | 0.992 | 1.31 | 0.432 | 0.385 | 0.338 | 0.277 | 0.323 | 1.02 | 0.95 | 0.88 | 0.983 | 0.884 | 0.811 | 0.781 | 0.894 | 0.79 | 0.743 | 0.977 |
| NCI-H1437 | 0.966 | 0.823 | 0.892 | 0.879 | 0.29 | 0.311 | 0.209 | 0.233 | 0.26 | 1.31 | 1.26 | 1.22 | 1.2 | 1.21 | 0.996 | 0.957 | 0.979 | 0.673 | 0.294 | 0.87 |
